Test results from ChEMBL document CHEMBL1909046, “DrugMatrix in vitro pharmacology data”.

Key:
[1] = DRUGMATRIX: beta-Lactamase enzyme inhibition (substrate: Nitrocefin); parameters: species or system Bacillus cereus; settings: Not Active = under 50% inhibition at 10 µM
[2] = biological target: T1, Angiotensin-converting enzyme (Oryctolagus cuniculus, UniProt P12822); assay: biochemical; assay type: tissue-based, Lung;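 note: enzymatic inhibition of angiotensin-converting enzyme measured with FAPGG as the substrate; in other assays of this panel Not Active means under 50% inhibition at 10 µM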
T1 sequence (P12822 whole entry): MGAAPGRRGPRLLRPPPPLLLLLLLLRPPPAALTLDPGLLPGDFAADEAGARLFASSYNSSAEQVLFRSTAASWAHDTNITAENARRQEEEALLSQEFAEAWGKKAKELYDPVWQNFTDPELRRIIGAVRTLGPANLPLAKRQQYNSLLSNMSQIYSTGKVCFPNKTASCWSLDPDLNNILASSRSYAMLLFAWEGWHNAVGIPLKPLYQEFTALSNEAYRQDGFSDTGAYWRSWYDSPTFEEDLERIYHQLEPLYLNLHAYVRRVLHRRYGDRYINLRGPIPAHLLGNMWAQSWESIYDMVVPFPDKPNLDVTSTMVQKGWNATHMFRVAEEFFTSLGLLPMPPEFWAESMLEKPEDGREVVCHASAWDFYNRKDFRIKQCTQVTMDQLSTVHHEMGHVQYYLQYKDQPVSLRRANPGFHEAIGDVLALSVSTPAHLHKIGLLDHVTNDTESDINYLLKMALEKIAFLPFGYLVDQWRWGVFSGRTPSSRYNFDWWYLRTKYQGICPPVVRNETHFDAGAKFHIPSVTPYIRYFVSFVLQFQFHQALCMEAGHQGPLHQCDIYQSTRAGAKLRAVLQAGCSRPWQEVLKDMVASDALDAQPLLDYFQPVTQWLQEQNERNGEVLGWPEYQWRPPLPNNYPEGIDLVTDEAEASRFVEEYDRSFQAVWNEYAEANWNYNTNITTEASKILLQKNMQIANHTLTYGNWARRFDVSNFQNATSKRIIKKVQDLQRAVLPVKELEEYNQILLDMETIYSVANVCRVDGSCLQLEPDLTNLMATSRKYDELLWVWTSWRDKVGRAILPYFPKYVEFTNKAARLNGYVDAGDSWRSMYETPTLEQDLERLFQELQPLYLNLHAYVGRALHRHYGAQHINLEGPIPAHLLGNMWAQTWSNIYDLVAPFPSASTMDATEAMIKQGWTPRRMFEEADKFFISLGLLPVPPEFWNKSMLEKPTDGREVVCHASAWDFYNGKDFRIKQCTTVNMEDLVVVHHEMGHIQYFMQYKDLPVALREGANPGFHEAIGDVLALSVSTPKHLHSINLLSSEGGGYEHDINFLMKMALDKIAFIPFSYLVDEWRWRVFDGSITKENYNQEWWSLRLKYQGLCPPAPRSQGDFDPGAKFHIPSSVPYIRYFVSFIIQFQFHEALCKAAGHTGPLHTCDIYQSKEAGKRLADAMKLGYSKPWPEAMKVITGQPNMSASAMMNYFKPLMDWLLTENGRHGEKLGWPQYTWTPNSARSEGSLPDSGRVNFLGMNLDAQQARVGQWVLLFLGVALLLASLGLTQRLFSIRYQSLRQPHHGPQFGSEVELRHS

[3] = DRUGMATRIX: Glutamate, AMPA radioligand binding (ligand: [3H] AMPA); assay type: cell membranes, Rattus norvegicus, Wistar, Cerebral cortex, Membrane; settings: Not Active = under 50% inhibition at 10 µM
[4] = biological target: T2, Adenosine receptor A1 (Homo sapiens, UniProt P30542); assay type: cell membranes, CHO, Membrane; settings: cho;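 note: radioligand binding assay at the adenosine A1 receptor, with DPCPX serving as the labelled ligand; in other assays of this panel Not Active means under 50% inhibition at 10 µM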
T2 sequence (P30542 whole entry): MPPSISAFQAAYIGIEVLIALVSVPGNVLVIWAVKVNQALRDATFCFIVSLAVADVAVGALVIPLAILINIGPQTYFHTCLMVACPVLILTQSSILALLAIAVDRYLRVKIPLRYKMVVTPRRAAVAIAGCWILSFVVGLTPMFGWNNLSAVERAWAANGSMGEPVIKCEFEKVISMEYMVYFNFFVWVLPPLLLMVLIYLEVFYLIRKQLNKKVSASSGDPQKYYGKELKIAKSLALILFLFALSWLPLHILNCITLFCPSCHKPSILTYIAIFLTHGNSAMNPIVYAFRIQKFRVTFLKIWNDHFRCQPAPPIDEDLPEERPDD

[5] = biological target: 5-hydroxytryptamine receptor 6 (Homo sapiens, UniProt P50406); assay type: cell membranes, HeLa, Membrane; settings: hela; note: in other assays of this panel Not Active means under 50% inhibition at 10 µM
5-hydroxytryptamine receptor 6, sequence (P50406 whole entry): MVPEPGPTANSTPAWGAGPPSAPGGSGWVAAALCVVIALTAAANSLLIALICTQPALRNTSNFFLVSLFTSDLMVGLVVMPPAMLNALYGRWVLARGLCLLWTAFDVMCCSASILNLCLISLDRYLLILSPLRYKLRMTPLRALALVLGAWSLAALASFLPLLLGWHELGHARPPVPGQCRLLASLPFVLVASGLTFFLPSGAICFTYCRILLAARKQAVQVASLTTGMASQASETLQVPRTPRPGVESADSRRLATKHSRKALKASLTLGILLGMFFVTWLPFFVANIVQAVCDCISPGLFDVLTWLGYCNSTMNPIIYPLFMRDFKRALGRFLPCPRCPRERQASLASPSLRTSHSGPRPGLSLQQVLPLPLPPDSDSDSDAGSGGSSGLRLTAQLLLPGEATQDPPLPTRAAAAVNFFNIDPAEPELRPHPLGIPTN

[6] = biological target: T3, Adenosine receptor A3 (Homo sapiens, UniProt P0DMS8); assay type: cell membranes, CHO-K1, Membrane;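 note: radioligand binding assay with AB-MECA serving as the labeled ligand; in other assays of this panel Not Active means under 50% inhibition at 10 µM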
T3 sequence (P0DMS8 whole entry): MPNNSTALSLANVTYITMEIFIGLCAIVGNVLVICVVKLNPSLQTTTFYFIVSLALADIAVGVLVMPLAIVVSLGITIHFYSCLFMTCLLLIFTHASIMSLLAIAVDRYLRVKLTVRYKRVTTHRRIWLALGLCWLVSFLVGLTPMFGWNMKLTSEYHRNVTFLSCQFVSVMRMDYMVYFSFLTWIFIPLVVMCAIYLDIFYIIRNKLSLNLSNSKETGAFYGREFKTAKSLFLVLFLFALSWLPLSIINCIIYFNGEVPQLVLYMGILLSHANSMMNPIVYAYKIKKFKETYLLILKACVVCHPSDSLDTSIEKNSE

[7] = biological target: T4, D(4) dopamine receptor (Homo sapiens, UniProt P21917); assay: DRUGMATRIX: Dopamine D4.2 radioligand binding (ligand: [3H] Spiperone); assay type: cell membranes, CHO-K1, Membrane; settings: cho-k1; Not Active = under 50% inhibition at 10 µM
T4 sequence (P21917 whole entry): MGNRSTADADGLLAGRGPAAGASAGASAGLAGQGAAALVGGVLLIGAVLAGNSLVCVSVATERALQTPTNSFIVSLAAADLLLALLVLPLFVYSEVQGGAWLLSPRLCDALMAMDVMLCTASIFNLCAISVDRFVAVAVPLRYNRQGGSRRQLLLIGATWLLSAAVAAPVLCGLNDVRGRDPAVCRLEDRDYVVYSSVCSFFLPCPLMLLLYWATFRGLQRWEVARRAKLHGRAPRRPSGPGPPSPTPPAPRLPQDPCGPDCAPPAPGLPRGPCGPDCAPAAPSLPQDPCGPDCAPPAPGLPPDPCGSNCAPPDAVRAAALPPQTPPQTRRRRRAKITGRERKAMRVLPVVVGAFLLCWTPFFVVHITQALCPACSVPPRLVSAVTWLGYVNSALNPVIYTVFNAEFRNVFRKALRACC

Row | Compound | IC50 [1] | Ki [1] | IC50 [2] | IC50 [3] | Ki [3] | IC50 [4] | IC50 [5] | IC50 ([6]; cho-k1) | IC50 [7] | IC50 ([6]; read-out: IC50) [µM] | Ki ([6]; read-out: Ki) [nM] | Ki [2] | Ki [4] | Ki [5] | Ki ([6]; cho-k1) | Ki [7]
1 | Cc1cnc(NC(=O)C2=C(O)c3ccccc3S(=O)(=O)N2C)s1 [MELOXICAM] | Not Active | Not Active | Not Active | Not Active | Not Active | Not Active | Not Active | Not Active | Not Active | – | – | – | – | – | – | –
2 | O=[As][O-].[Na+] [SODIUM ARSENITE] | Not Active | Not Active | Not Active | Not Active | Not Active | Not Active | Not Active | Not Active | Not Active | – | – | – | – | – | – | –
3 | Cc1cccc(C)c1NC(=O)C(C)N (centres undefined) [TOCAINIDE] | Not Active | Not Active | Not Active | Not Active | Not Active | Not Active | Not Active | Not Active | Not Active | – | – | – | – | – | – | –
4 | COC(=O)Nc1nc2ccc(C(=O)c3ccccc3)cc2[nH]1 [MEBENDAZOLE] | Not Active | Not Active | Not Active | Not Active | Not Active | Not Active | Not Active | Not Active | Not Active | – | – | – | – | – | – | –
5 | CCOC(=O)C1=C(C)NC(C)=C(C(=O)OCC)C1c1ccccc1/C=C/C(=O)OC(C)(C)C [LACIDIPINE] | Not Active | Not Active | Not Active | Not Active | Not Active | Not Active | Not Active | – | Not Active | 4.04 | 2280 | – | – | – | – | –
6 | CC[C@H](C)[C@@H](CO[C@@H](Cc1ccccc1)C(=O)N[C@@H](CCS(C)(=O)=O)C(=O)OC(C)C)NC[C@@H](N)CS | Not Active | Not Active | Not Active | Not Active | Not Active | Not Active | Not Active | Not Active | Not Active | – | – | – | – | – | – | –
7 | O=C(c1ccccc1)c1ccc2n1CCC2C(=O)O (centres undefined) [KETOROLAC] | Not Active | Not Active | Not Active | Not Active | Not Active | Not Active | Not Active | Not Active | Not Active | – | – | – | – | – | – | –
8 | O=C(O)c1cc(/N=N/c2ccc(S(=O)(=O)Nc3ccccn3)cc2)ccc1O [SULFASALAZINE] | Not Active | Not Active | Not Active | Not Active | Not Active | Not Active | Not Active | Not Active | Not Active | – | – | – | – | – | – | –
9 | CC1(C)[C@H](C(=O)O)N2C(=O)C[C@H]2S1(=O)=O [SULBACTAM] | Not Active | Not Active | Not Active | Not Active | Not Active | Not Active | Not Active | Not Active | Not Active | – | – | – | – | – | – | –
10 | C1CCN2C[C@@H]3C[C@@H](CN4CCCC[C@@H]34)[C@H]2C1 [SPARTEINE] | Not Active | Not Active | Not Active | Not Active | Not Active | Not Active | Not Active | Not Active | Not Active | – | – | – | – | – | – | –
11 | LEAD(IV) ACETATE | Not Active | Not Active | Not Active | Not Active | Not Active | Not Active | Not Active | Not Active | Not Active | – | – | Not Active | Not Active | Not Active | Not Active | Not Active
12 | CC(O)C(=O)O (centres undefined) [LACTIC ACID] | Not Active | Not Active | Not Active | Not Active | Not Active | Not Active | Not Active | Not Active | Not Active | – | – | – | – | – | – | –
